Assay [1] concerns ATQ-R5 (cytb F267V, parent 3D7). Kind of assay: Cross-resistance EC50 assay, ATQ-R5. It counts as cell-based, Plasmodium falciparum. Particulars: for EC50: Plasmodium falciparum, 3D7, SYBR green 72 hour assay, asynchronized parasites, 96-well or 1536-well format, ATQ-R5. An excerpt:
(§1) To evaluate potential overlapping activity against known antimalarial drug targets, we performed dose-response studies with each compound against our assembled set of drug-resistant lines and their corresponding parents, in an asexual blood stage proliferation assay (Table 1). Comparisons were made to the drug-sensitive strain 3D7 when a parent was unavailable (TM90C2A, W2 and Dd2). As laboratories conducted EC50 assays with different strains and protocols, all comparisons were made between assays from the same laboratory and under the same assay conditions. Compounds displaying >5-fold EC50 shifts relative to the parent or sensitive strain were flagged as having potentially non-novel targets. Average fold shifts per strain ranged from 0.82 to 2.34, with a median of 1.23 indicating there was not common resistance to any one resistant clone. No resistance patterns were observed when classifying the compounds based on chemical structure, but this was not surprising given the diversity of compounds chosen. On the other hand, given that these confirmed compounds were derived from larger unconfirmed hit lists to which some filtration criteria may have been applied (for example, elimination of obvious dihydrofolate reductase inhibitors[32]), some[10][11][12][13] pre-existing bias may exist in the set. […]
(§2) Alternatively, a SYBR Green-based proliferation approach was used for the 72-h assay, as previously described. Briefly, a culture of either synchronized or asynchronous parasitized RBCs (0.3% parasitemia and 4% haematocrit) in screening medium (identical to supplemented medium above except no serum was added) was exposed to serial drug dilutions. Plates were incubated at 37 °C and gassed with 93% N2, 4% CO2 and 3% O2 for 72 h. Following incubation, 10 × SYBR Green I (Invitrogen; supplied in 10,000 × concentration) in lysis buffer ([…], 5 mM EDTA, 0.16% Saponin wt per vol and 1.6% Triton X vol per vol) was added to the wells and the plates were incubated overnight at room temperature before plate reading. EC50 assays were repeated three times, taking the average EC50 value from each assay set, and removing any outliers using a single iteration of Grubbs' test, eliminating values with z-scores above the critical z-value (α=0.05). The raw EC50 values for synchronized parasites assayed in a 384-well format are listed in Supplementary Data 4. The raw EC50 values for asynchronous parasites assayed in a 96 or 1536-well format are listed in Supplementary Data 5.
(§3) EC50 values for each strain were compared with those of the corresponding parent strain to determine fold-shift changes and identify resistance. To minimize the cause variance between assays, all comparisons were conducted between strains assayed under identical conditions. A one-way ANOVA followed by a Dunnet's post-test was conducted in GraphPad Prism to identify significant changes between the parent and resistant strain.

The test system of assay [2] is Stage 5 gametocytes from P. falciparum NF54. Kind of assay: Late-stage (stage V) gametocyte survival assay, MitoTracker. Particulars: for EC50: Plasmodium falciparum, read-out: Stage 5 Gametocyte EC50; for EC50 fold shift compared to asexual stage: Stage 5 Gametocyte EC50: gametocyte EC50 / 3D7 EC50. It counts as cell-based, Plasmodium falciparum. The protocol: The second assay was a late-stage (stage V) gametocyte survival assay, which predicts transmission-blocking activity. […] Positive and negative control compounds included puromycin (0.61±0.11 μM) and atovaquone (> 12.50 μM), respectively.
To test sexual-stage activity, compounds were tested against late-stage gametocytes using a MitoTracker fluorescent-based assay. Specifically, synchronized stage V gametocytes were incubated with compound for 72 h. MitoTracker Red CMXRos (Life Technologies) was added to each well (final concentration: 500 nM) together with saponin to lyse the RBCs. Each plate was then imaged with an Operetta High Content Imaging System (Perkin Elmer) for fluorescence (590–640 nm). Varying levels of compound concentration were used (1.25 μM or 12.5 μM) due to the stock concentration supplied.
The gametocytocidal activity was measured using high-content image analysis software (Harmony, Perkin Elmer). The readout was based on number of metabolically active gametocytes per well.

Assay [3] has as its system GNF156R (PfCARL L830V, S1076I and M81I, parent Dd2). Kind of assay: Cross-resistance EC50 assay, GNF156R. It counts as cell-based. Conditions: Plasmodium falciparum, SYBR green 72 hour assay, asynchronized parasites, 96-well or 1536-well format.
From the text: as §1, §2, §3

In assay [4] the test system is TM90C2A (DHFR, folate pathway; compared with 3D7). As to the kind of experiment: Cross-resistance EC50 assay, TM90C2A. It counts as cell-based. Conditions: Plasmodium falciparum, 48 h, read-out: TM90C2A (3D7 Parent) Average EC50.
From the text: To evaluate potential overlapping activity against known antimalarial drug targets, we performed dose-response studies with each compound against our assembled set of drug-resistant lines and their corresponding parents, in an asexual blood stage proliferation assay (Table 1). Comparisons were made to the drug-sensitive strain 3D7 when a parent was unavailable (TM90C2A, W2 and Dd2). As laboratories conducted EC50 assays with different strains and protocols, all comparisons were made between assays from the same laboratory and under the same assay conditions. Compounds displaying >5-fold EC50 shifts relative to the parent or sensitive strain were flagged as having potentially non-novel targets. Average fold shifts per strain ranged from 0.82 to 2.34, with a median of 1.23 indicating there was not common resistance to any one resistant clone. No resistance patterns were observed when classifying the compounds based on chemical structure, but this was not surprising given the diversity of compounds chosen. On the other hand, given that these confirmed compounds were derived from larger unconfirmed hit lists to which some filtration criteria may have been applied (for example, elimination of obvious dihydrofolate reductase inhibitors[32]), some[10][11][12][13] pre-existing bias may exist in the set.
The 48-h assay was carried out in a 96-well format following standard methods using the ^3H-hypoxanthine incorporation assay. The raw EC50 values corresponding to this assay can be found in Supplementary Data 3. Briefly, this assay relies on the parasite incorporation of labelled hypoxanthine that is proportional to P. falciparum growth. A culture of parasitized RBCs (0.5% parasitemia with a percentage of ring stage higher than 70% of total parasitemia, 2.0% haematocrit) in RPMI-1640, […] and 5 μM hypoxanthine was exposed to drug serial dilutions. Plates were incubated for 24 h at 37 °C, 5% CO2, 5% O2 and 90% N2. After 24 h of incubation, ^3H-hypoxanthine was added and plates were incubated for an additional 24-h period. After that, parasites were harvested on a glass fibre filter using a TOMTEC Cell Harvester 96. Filters were dried and melt-on scintillator sheets were used to determine the incorporation of ^3H-hypoxanthine. Radioactivity was measured using a microbeta counter. Data were normalized using the incorporation of the positive (parasitized RBCs without drug) and negative (same culture with artesunate at 2 μM) controls. All assays were conducted in triplicate using three independently grown cultures, and EC50 values were determined using the XLfit add-in module for Excel (version 2.3.1) from Grafit (version 5.3.1.3), where parameter h is the assay hill slope, x is the compound concentration and y is the inhibition of growth effect. The XLfit equation is: […]
as §3

Each structure is given as a SMILES string. Like-named read-outs stand apart in the source and are kept apart here.

The EC50 is the concentration at which the effect is half-maximal.

Take `COc1ccc(NC(=O)N2CCCCN3[C@H](CN)[C@H](c4ccc(C#Cc5ccccc5)cc4)[C@@H]3C2)cc1` [BRD1095]: the EC50 in assay [1] worked out at 0.002 µM; in assay [2] (P. falciparum NF54, 72 h), 259 nM; in assay [3], 0.00166 µM. The “EC50 fold shift compared to asexual stage: Stage 5 Gametocyte EC50” value (shortened to “EC50 fold shift”) in assay [2] is reported as 6.48.

Consider `CCN(CC)CCn1c(=N)n(CC(O)c2ccc(Cl)c(Cl)c2)c2ccccc21.Cl` (stereo not shown) [MMV000248], for which the EC50 in assay [4] is 466 nM; in assay [1], 0.191 µM; in assay [2] (P. falciparum NF54, 72 h), 1600 nM; in assay [3], 0.432 µM. In addition, the “EC50 fold shift” value in assay [2] is recorded as 5.23.

Turning to `CCOc1cc2c(cc1OCC)C(c1cc(Cl)ccc1O)NCC2` (stereo not shown) [MMV000478], the EC50 in assay [4] is 1440 nM; in assay [1], 0.733 µM; in assay [2] (P. falciparum NF54, 72 h) it was above 1250 nM; in assay [3] it was 0.764 µM. Moreover, in assay [2], the “EC50 fold shift” value was above 1.25.

As for `CCCOCc1cc(CN2CCN(c3cccc(Cl)c3)CC2)c(O)c2ncccc12` [MMV000787], the EC50 in assay [4] is 1040 nM; in assay [1] it was 1.43 µM; in assay [2] (P. falciparum NF54, 72 h), 5670 nM; in assay [3], 1.63 µM.

`CN1CCN(c2ccc(Nc3c4ccccc4nc4ccccc34)cc2)CC1` [MMV006172]: the EC50 in assay [4] came to 162 nM; in assay [1], 0.181 µM; in assay [2] (P. falciparum NF54, 72 h), 919 nM; in assay [3], 0.32 µM.

Regarding `CCCN(CCC)CC(O)COc1ccccc1C(=O)Nc1ccccc1` (stereo not shown) [MMV006455], the half-maximal effective concentration (EC50) is 377 nM in assay [4]; 0.548 µM in assay [1]; above 1250 nM in assay [2] (P. falciparum NF54, 72 h); 0.083 µM in assay [3]. The “EC50 fold shift” value in assay [2] is above 2.3.

With `COc1cc2cc(C(=O)Nc3ccccc3)c(N)nc2cc1OC` [MMV006767], the concentration for a half-maximal effect (EC50) in assay [4] is 2870 nM; in assay [1], 2.87 µM; in assay [2] (P. falciparum NF54, 72 h), above 12500 nM; in assay [3], 0.379 µM.

On to `Cc1cc(Nc2ccc(OCc3ccccc3)cc2)nc2cc(O)ccc12` [MMV007181], for which the concentration giving a half-maximal response (EC50) was determined as 278 nM in assay [4]; 0.088 µM in assay [1]; 805 nM in assay [2] (P. falciparum NF54, 72 h); 0.163 µM in assay [3]. In assay [2], the “EC50 fold shift” value is on record as 2.33.

`Brc1ccc(Nc2nc3ccccc3nc2Nc2ccc(Br)cc2)cc1` [MMV007224]: the EC50 in assay [4] was 154 nM; in assay [1], 0.719 µM; in assay [2] (P. falciparum NF54, 72 h), 2520 nM; in assay [3], 0.712 µM. Further, the “EC50 fold shift” value in assay [2] is on record as 11.35.

`Cc1ccc(Cn2c(N3CCC(C(=O)NCc4cccs4)CC3)nc3ccccc32)cc1` [MMV007564]: the EC50 came to 655 nM in assay [4]; 1.33 µM in assay [1]; 2210 nM in assay [2] (P. falciparum NF54, 72 h); 1.62 µM in assay [3]. The “EC50 fold shift” value in assay [2] turned out to be 3.81.

On to `Cc1c(C)n(Cc2ccc(F)cc2)c2ccc(C(=O)NCc3ccco3)cc12` [MMV008149], for which the EC50 in assay [4] was 908 nM; in assay [1], 1.58 µM; in assay [2] (P. falciparum NF54, 72 h) it was above 1250 nM; in assay [3] it was 0.798 µM. Also, the “EC50 fold shift” value in assay [2] worked out at 1.62.

Turning to `OC(CNC1CCCCC1)Cn1c2ccccc2c2ccccc21` (stereo not shown) [MMV009063], the EC50 is 537 nM in assay [4]; 0.652 µM in assay [1]; above 1250 nM in assay [2] (P. falciparum NF54, 72 h); 0.095 µM in assay [3]. In addition, in assay [2], the “EC50 fold shift” value is reported as above 1.5.

With `CCN(CC)S(=O)(=O)c1ccc(-c2csc(Nc3ccc(C)c(C)c3)n2)cc1` [MMV009108], the concentration giving a half-maximal response (EC50) in assay [4] stood at 445 nM; in assay [1], 2.35 µM; in assay [2] (P. falciparum NF54, 72 h), 921 nM; in assay [3], 1.5 µM. Further, the “EC50 fold shift” value in assay [2] was 0.99.

`COC(=O)c1ccc(C2C3=C(O)CC(c4ccc(F)cc4)CC3=Nc3ccccc3N2C(=O)c2ccccc2)cc1` (stereo not shown) [MMV011438]: the EC50 in assay [4] turned out to be 322 nM; in assay [1], 0.34 µM; in assay [2] (P. falciparum NF54, 72 h), 971 nM; in assay [3] it was 0.842 µM. Further, the “EC50 fold shift” value in assay [2] was 2.25.

As to `Nc1ccc(-c2nc3cc(Oc4ccc(Oc5ccc6[nH]c(-c7ccc(N)cc7)nc6c5)cc4)ccc3[nH]2)cc1` [MMV011895], the half-maximal effective concentration (EC50) was 356 nM in assay [4]; 0.525 µM in assay [1]; above 12500 nM in assay [2] (P. falciparum NF54, 72 h); 0.126 µM in assay [3]. In addition, in assay [2], the “EC50 fold shift” value was above 78.

For the molecule `COCCNCC(O)Cn1c2ccc(Cl)cc2c2cc(Cl)ccc21` (stereo not shown) [MMV019017], the 50% effective concentration (EC50) in assay [4] was 868 nM; in assay [1], 0.842 µM; in assay [2] (P. falciparum NF54, 72 h) it was above 1250 nM; in assay [3], 0.336 µM. Also, the “EC50 fold shift” value in assay [2] is given as above 2.6.

Consider `COc1ccccc1CNC(=O)CCn1c(=O)[nH]c2ccsc2c1=O` [MMV019066], for which the EC50 in assay [4] was 1620 nM; in assay [1], 0.023 µM; in assay [2] (P. falciparum NF54, 72 h) it was above 1250 nM; in assay [3] it was 0.008 µM. Also, the “resistance in ATQ-R5 vs parent” value in assay [1] (EC50 fold-shift under the threshold (5-fold)) is on record as “Statistically significant resistance”. The “EC50 fold shift” value in assay [2] is recorded as above 0.7.

As for `Cl.c1ccc2c(NCCCCCCNc3c4c(nc5ccccc35)CCCC4)c3c(nc2c1)CCCC3` [MMV019555], the concentration giving a half-maximal response (EC50) in assay [4] was 280 nM; in assay [1], 0.086 µM; in assay [2] (NF54, 72 h), 451 nM; in assay [3] it was 0.22 µM.

Take `CN(C)CCCN(C)C(=O)C1Cc2cc(-c3ccccc3)ccc2N1S(=O)(=O)c1ccccc1` (stereo not shown) [MMV028895]: the values for the 50% effective concentration (EC50) in assay [4], in assay [1] and in assay [3] were 253 nM, 0.879 µM and 3.92 µM, respectively.

Turning to `COc1ccc2c3c([nH]c2c1)[C@H](CO)N(C(C)=O)CC31CCN(C(=O)Nc2ccccc2F)CC1` [MMV673482], the 50% effective concentration (EC50) in assay [4] amounted to 352 nM; in assay [1], 0.025 µM.
